Results as given in patent US5371099A, “Phenyl carboxamide isoxazoles” (Roussel-Uclaf, priority 1992, dated 1994).

Experiments:
[1] = tested on: Delayed-type hypersensitivity rat paw oedema; test: Test 3: Delayed-type hypersensitivity rat paw oedema (DTH-R)
[2] = tested on: Delayed-type hypersensitivity mouse paw oedema; test: Test 2: Delayed-type hypersensitivity mouse paw oedema (DTH-M); type: in vivo, mouse (male CD-1); conditions: po, 24 h; for inhibition in vivo at 100 mg/kg: 100 mg/kg p.o.
Method: Delayed-type hypersensitivity mouse paw oedema (DTH-M)
Groups of 8 to 10 mice, male CD-1 weighing 25-30 g were sensitized by the subcutaneous injection of 1 mg of methylated bovine serum albumin (MBSA) in 0.2 ml volumes of saline/Freund's complete adjuvant (FCA) emulsion. Negative control groups received injections of saline/FCA emulsion. DTH paw oedema responses were assessed twenty-four hours after the right hind foot pad challenge with 0.1 mg of MBSA in 0.05 ml volumes of saline on day seven after sensitization. Contralateral paws received control saline injections. The test compounds or control vehicles were orally administered daily on days four, five, six and twice on day seven, one hour before and six hours after MBSA challenge.
(§1) Doses are given in units of mg/kg p.o.

[3] = tested on: Carrageenan rat paw oedema; test: Test 1: Carrageenan rat paw oedema (PO-R); type: in vivo, rat (male CFHB); conditions: 3 h; for inhibition in vivo at 50 mg/kg: 50 mg/kg p.o.; for inhibition in vivo at 10 mg/kg: 10 mg/kg p.o.
Method: Carrageenan rat paw oedema (PO-R)
One hour after the oral administration of the test compounds or control vehicle to groups of 6 to 12 male CFHB rats, weighing 160-180 g, 1 mg of carrageenan dissolved in 0.2 ml of saline was injected into the right hind foot pad. Contralateral paws received control saline injections. Paw oedema responses were assessed three hours later.
as §1

[4] = Pharmacokinetic comparison, plasma concentrations of parent compound and active metabolite in mice; type: in vivo; conditions: 30 mg/kg orally
Method: A pharmacokinetic comparison was made between the compound of Example 8 in which R5 is methyl and the corresponding known compound in which R5 is hydrogen. Each compound was administered orally to mice at a dose of 30 mg/kg and plasma concentrations of the parent compound and the corresponding active metabolite were determined at various time points after administration.

[5] = Rattus norvegicus, po, 24 h, read-out: % Inhibition (Test 3, DTH-R)

SMILES	inhibition in vivo at 50 mg/kg [1, 5] [%]	inhibition in vivo at 100 mg/kg [2] [%]	inhibition in vivo at 50 mg/kg [3] [%]	inhibition in vivo at 10 mg/kg [1, 5] [%]	also measured
Cc1cc(NC(=O)c2c(C(=O)O)noc2C2CC2)ccc1C(F)(F)F [Example 10, 5-cyclopropyl-4-[N-(3-methyl-4-trifluoromethyl)phenyl]carbamoyl-3-isoxazolecarboxylic acid]	73	12	5	–	–
Cc1onc(C(=O)O)c1C(=O)Nc1ccc(SC(F)(F)F)cc1 [Example 7, 5-methyl-4-[N-(4-trifluoromethylthio)phenyl]carbamoyl-3-isoxazolecarboxylicacid]	73	14	1	42	–
O=C(O)c1noc(C2CC2)c1C(=O)Nc1ccc(SC(F)(F)F)cc1 [Example 12, 5-cyclopropyl-4-[N-(4-trifluoromethylthio)phenyl]carbamoyl-3-isoxazolecarboxylic acid]	–	36	–	75	inhibition in vivo at 10 mg/kg [3]: 11%
Cc1onc(C(=O)O)c1C(=O)Nc1ccc(OC(F)(F)F)cc1 [known compound, reference compound]	–	–	–	–	detectability of the active metabolite at 72 hours after administration ([4]; plasma, 72 hours): still being detectable
Cc1cc(NC(=O)c2c(C(=O)O)noc2C)ccc1C#N [Example 6, 4-[N-(4-cyano-3-methyl)phenyl]carbamoyl-5-methyl-3-isoxazolecarboxylic acid]	25	5	5	–	–
Cc1onc(C(=O)O)c1C(=O)Nc1ccc(C#N)cc1 [Example 2, 4-[N-(4-cyanophenyl)]carbamoyl-5-methyl-3-isoxazolecarboxylic acid]	-47	27	-25	–	–
Cc1cc(NC(=O)c2c(C(=O)O)noc2C)ccc1Cl [Example 4, 4-[N-(4-chloro-3-methyl)phenyl]carbamoyl-5-methyl-3-isoxazolecarboxylic acid]	6	24	-10	–	–
O=C(O)c1noc(C2CC2)c1C(=O)Nc1ccc(OC(F)(F)F)cc1 [Example 11]	–	65	–	95	toxicity printed in place of % Inhibition (Test 3, DTH-R) ([1]; 50 mg/kg p.o.): Toxic; inhibition in vivo at 3 mg/kg [1, 5]: 65%; inhibition in vivo at 30 mg/kg ([2]; 30 mg/kg p.o.): 37%; inhibition in vivo at 3 mg/kg ([3]; 3 mg/kg p.o.): -2%
Cc1onc(C(=O)O)c1C(=O)Nc1ccc([N+](=O)[O-])cc1 [Example 1, 5-methyl-4-[N-(4-nitrophenyl)]carbamoyl-3-isoxazolecarboxylic acid]	28	41	-2	–	–
Cc1cc(NC(=O)c2c(C(=O)O)noc2C2CC2)ccc1OC(F)(F)F [Example 13, 5-cyclopropyl-4-[N-(3-methyl-4-trifluoromethoxy)phenyl]carbamoyl-3-isoxazolecarboxylic acid]	–	52	–	47	inhibition in vivo at 10 mg/kg [3]: 5%
Cc1cc(NC(=O)c2c(C(=O)O)noc2C)ccc1OC(F)(F)F [Example 8, 5-methyl-4-[N-(3-methyl-4-trifluoromethoxy)phenyl]carbamoyl-3-isoxazolecarboxylic acid]	79	48	–	34	detectability of the active metabolite 24 hours after administration ([4]; plasma, 24 hours): no metabolite detectable; inhibition in vivo at 10 mg/kg [3]: 16%
Cc1cc(NC(=O)c2c(C(=O)O)noc2C)ccc1C(F)(F)F [Example 5, 5-methyl-4-[N-(3-methyl-4-trifluoromethyl)phenyl]carbamoyl-3-isoxazolecarboxylic acid]	95	44	18	44	–
CCOC(=O)c1noc(C)c1C(=O)Nc1ccc(C(F)(F)F)c(C)c1 [Example 18, Ethyl 5-methyl-4-[N-(3-methyl-4-trifluoromethyl)phenyl]carbamoyl-3-isoxazolecarboxylate]	50	3	23	–	–
O=C(O)c1noc(C2CC2)c1C(=O)Nc1ccc(C(F)(F)F)cc1 [Example 9, 5-cyclopropyl-4-[N-(4-trifluoromethyl)phenyl]carbamoyl-3-isoxazolecarboxylic acid]	86	72	–	45	pharmacokinetics compared with known compound in which R5 is hydrogen ([4]; effect of methyl substituent): improved pharmacokinetics; inhibition in vivo at 10 mg/kg [3]: -24%
Cc1cc(NC(=O)c2c(C(=O)O)noc2C)ccc1Br [Example 3, 4-[N-(4-bromo-3-methyl)phenyl]carbamoyl-5-methyl-3-isoxazolecarboxylic acid]	-4	35	-10	–	–
